One assay has as its system Pythium aphanidermatum. As to the kind of experiment: cucumber damping-off, pot test: soil drench of D-tagatose combined with fungicides. Conditions: for Preventive value: alone, soil drench.
For another assay, the system named is Sphaerotheca fuliginea. As to conditions: for Preventive value: cucumber, compound alone.
The subject of another assay is Phytophthora infestans. As to the kind of experiment: whole plant or invertebrate. It counts as in vivo. As to conditions: for Preventive value: alone.
In assay [1] the test system is Pseudoperonospora cubensis. Conditions: for Preventive value: alone, curative.
Method: Test plants (cucumber, variety: Sagami hanpaku) were seeded and grown until the one true leaf stage. And then, a sporangium suspension of Pseudoperonospora cubensis containing 1×10^3/ml were spraying for inoculation on the back side of the leaves of test plants and then put for 16 hours in an inoculation chamber (20° C. to 23° C.) to promote disease. For a curative test, the inoculated plants as described above were used.
D-Tagatose was diluted to 5000 ppm and the fungicides were diluted to the concentrations listed in table 15, with distilled water, and 10 ml of the dilution was sprayed. Seven days after inoculation the disease severity of the test plants was observed and the effectiveness of test sample was judged.
The test system of assay [2] is Pseudoperonospora cubensis. As to conditions: for Preventive value: alone.
For another assay, the system named is Botrytis cinerea. As to conditions: for Preventive value: tomato, compound alone.
The subject of assay [3] is Erysiphe graminis f.sp. hordei. Conditions: for Preventive value: barley, compound alone.
The subject of a further assay is Puccinia recondita. As to conditions: for pest or weed control at 250 ppm / pest or weed control at 2 ppm / pest or weed control at 50 ppm: Puccinia recondita, in Triticum aestivum, 168 h, read-out: Preventive value; for Preventive value: wheat, compound alone.
The next assay concerns Plasmopara viticola. As to conditions: for Preventive value: alone.
The subject of the next assay is Pyricularia oryze. In words: whole plant or invertebrate. The format is in vivo. As to conditions: for Preventive value: rice, compound alone.
The mark [4] stands for this setting: Podosphaera fuliginea, in Cucumis sativus, 168 h, read-out: Preventive value.
Setting [5] is: Phytophthora infestans, in Solanum lycopersicum, 168 h, read-out: Preventive value.
The mark [6] stands for this setting: Pseudoperonospora cubensis, in Cucumis sativus, 168 h, read-out: Preventive value.
Where [7] appears, read: Pythium aphanidermatum, in Cucumis sativus, soil, 336 h, read-out: Preventive value.
The mark [8] stands for this setting: Botrytis cinerea, in Solanum lycopersicum, 168 h, read-out: Preventive value.
Where [9] appears, read: Blumeria graminis, in Hordeum vulgare, 168 h, read-out: Preventive value.
Setting [10] is: Plasmopara viticola, 168 h, read-out: Preventive value.
Setting [11] is: Pyricularia, in Oryza sativa, 168 h, read-out: Preventive value.

Structures can show the parent of a compound that is named as a salt. Where two headings read alike, the source gives them in different places.

Method for Plasmopara viticola: Test plants (variety: Neo Muscat) were seeded and grown until three leaves. D-Tagatose was diluted to 5000 ppm and the fungicides were diluted to the concentrations listed in table 16, with distilled water, and 10 ml of the dilution was sprayed on the plants. Three days after the spraying of the dilution, the plants were infected by spraying a sporangium suspension of Plasmopara viticola containing 1×10^3/ml and then put for 16 hours in an inoculation chamber (20° C. to 23° C.) to promote disease. The disease severity of the test plants was observed 7 days after inoculation, and the effectiveness of test sample was judged.
Method for Puccinia recondita: Test plants (variety: Nourin 61 gou) were sowed and grown until two leaves stage.
D-Tagatose and fungicide were diluted to 10000 ppm and the concentration listed in table 19, respectively, with distilled water, and 10 ml of the dilution was sprayed thoroughly on the plants. Three days after the spraying of the dilution, the plants were inoculated with Puccinia recondita containing 1×10^3/ml and then put for 16 hours in an inoculation chamber (20° C. to 23° C.) to promote disease. Seven days after inoculation the disease severity of the test plants was observed and the effectiveness of test sample was judged.
Method for Pythium aphanidermatum: Five seeds of test plants (cucumber, variety: Sagami hanpaku) were sowed in a pot (5×5 cm), which contains infested soil with Pythium aphanidermatum (mycelium 100 g/1 L soil) and was covered with soil. D-Tagatose was diluted to 5000 ppm and the fungicides were diluted to the concentrations listed in table 18, with distilled water. The pot was drenched with 10 ml of the dilution. After 2 weeks, the disease severity of the test plants was observed and the effectiveness of test sample was judged. Tests were carried out in triplicate using 5 plants for each test set and the preventive value was calculated from the germination rate.
Method for Sphaerotheca fuliginea: Test plants (cucumber, variety: Sagami hanpaku) were seeded and grown until the one true leaf stage. D-Tagatose and fungicide were diluted to 5000 ppm and the concentrations listed in table 20, respectively, with distilled water and 10 ml of the dilution was sprayed thoroughly on the plants. Three days after spraying, a condia suspension containing of Sphaerotheca fuliginea were inoculated by spraying on test plants.
Seven days after inoculation the disease severity of the test plants was observed and the effectiveness of test sample was judged.

On to `Cc1c(Br)c2ccc(F)cc2n1S(=O)(=O)c1ncn(S(=O)(=O)N(C)C)n1` [amisulbrom], for which, in the assay with Pythium aphanidermatum (50 ppm), the Preventive value was 83.
On to `CC(C)OC(=O)N[C@H](C(=O)N[C@H](C)c1nc2ccc(F)cc2s1)C(C)C` [benthiavalicarb-isopropyl], for which the pest or weed control at 250 ppm (in the assay on Sphaerotheca fuliginea (setting [4]); with Pythium aphanidermatum (setting [7]); in the assay on Botrytis cinerea (setting [8]); in [3] (setting [9]); in the assay on Puccinia recondita) was 0% throughout. Moreover, the pest or weed control at 0.4 ppm stood at 73% with Phytophthora infestans (setting [5]), 33% in [1] (setting [6]), 73% in [2] (setting [6]) and 50% in the assay on Plasmopara viticola (setting [10]).
Consider `O=C(Nc1ccccc1-c1ccc(Cl)cc1)c1cccnc1Cl` [boscalid], for which the pest or weed control at 0.4 ppm in the assay on Sphaerotheca fuliginea (setting [4]) worked out at 67%; in assay [3] (setting [9]), 17%. In the assay with Botrytis cinerea (setting [8]), the pest or weed control at 10 ppm came out at 67%. Also, the pest or weed control at 2 ppm with Puccinia recondita is 67%.
In the case of `N#Cc1c(Cl)c(Cl)c(Cl)c(C#N)c1Cl` [chlorothalonil], the pest or weed control at 50 ppm was 50% in the assay with Sphaerotheca fuliginea (setting [4]); 83% in the assay with Phytophthora infestans (setting [5]); 0% in assay [1] (setting [6]); 83% in assay [2] (setting [6]); 67% in the assay with Botrytis cinerea (setting [8]); 33% in assay [3] (setting [9]). The pest or weed control at 50 ppm with Puccinia recondita came to 83%; in the assay with Plasmopara viticola (setting [10]), 73%.
In the case of `[Cu+2].[OH-].[OH-]` [cupric hydroxide], the Preventive value is reported as 50 in the assay with Phytophthora infestans (50 ppm), 0 in [1] (50 ppm), 40 in assay [2] (50 ppm) and 0 in the assay on Plasmopara viticola (50 ppm).
For the molecule `O=C(Cc1ccccc1)N/C(=N\OCC1CC1)c1c(C(F)(F)F)ccc(F)c1F` [cyflufenamid], the pest or weed control at 0.4 ppm with Sphaerotheca fuliginea (setting [4]) worked out at 50%; in [3] (setting [9]) it was 67%.
With `CCNC(=O)NC(=O)/C(C#N)=N/OC` [cymoxanil], the pest or weed control at 50 ppm in the assay with Phytophthora infestans (setting [5]) came to 83%; in [1] (setting [6]), 83%; in assay [2] (setting [6]) it was 33%; with Plasmopara viticola (setting [10]), 73%. The pest or weed control at 250 ppm in the assay on Pythium aphanidermatum (setting [7]) amounted to 17%.
Take `COc1ccc(C(=CC(=O)N2CCOCC2)c2ccc(Cl)cc2)cc1OC` [dimethomorph]: the pest or weed control at 10 ppm was 73% in the assay with Phytophthora infestans (setting [5]), 40% in [1] (setting [6]), 67% in [2] (setting [6]) and 50% with Plasmopara viticola (setting [10]). The pest or weed control at 250 ppm in the assay with Pythium aphanidermatum (setting [7]) is 0%.
In the case of `CSC1=N[C@@](C)(c2ccccc2)C(=O)N1Nc1ccccc1` [fenamidone], the pest or weed control at 2 ppm in the assay with Phytophthora infestans (setting [5]) amounted to 83%; in [1] (setting [6]), 33%; in assay [2] (setting [6]) it was 33%; in the assay with Plasmopara viticola (setting [10]), 83%. Besides, in the assay with Pythium aphanidermatum (setting [7]), the pest or weed control at 10 ppm was 50%.
Turning to `O=[N+]([O-])c1cc(C(F)(F)F)c(Cl)c([N+](=O)[O-])c1Nc1ncc(C(F)(F)F)cc1Cl` [fluazinam], the pest or weed control at 250 ppm (in the assay with Sphaerotheca fuliginea (setting [4]); in [3] (setting [9])) was 83% each time. Also, the pest or weed control at 10 ppm in the assay with Phytophthora infestans (setting [5]) turned out to be 83%; in assay [1] (setting [6]), 0%; in assay [2] (setting [6]) it was 97%; in the assay on Plasmopara viticola (setting [10]), 83%; in the assay on Pyricularia oryze (setting [11]), 50%. Also, the pest or weed control at 50 ppm with Botrytis cinerea (setting [8]) came out at 67%; with Puccinia recondita, 83%.
Take `O=C(NCc1ncc(C(F)(F)F)cc1Cl)c1c(Cl)cccc1Cl` [fluopicolide]: the Preventive value in the assay on Phytophthora infestans (10 ppm) is given as 83; in assay [1] (10 ppm), 83; in the assay with Pythium aphanidermatum (250 ppm), 83; in assay [2] (10 ppm) it was 83; with Plasmopara viticola (10 ppm), 73; in the assay on Pyricularia oryze (250 ppm), 0.
Regarding `CCO[PH](=O)O` [fosethyl], the Preventive value is reported as 17 with Sphaerotheca fuliginea (250 ppm); 33 with Phytophthora infestans (250 ppm); 0 in assay [1] (250 ppm); 0 in the assay on Pythium aphanidermatum (250 ppm); 0 in [2] (250 ppm); 17 in assay [3] (250 ppm). For the same molecule, the Preventive value in the assay on Puccinia recondita (250 ppm) and with Plasmopara viticola (250 ppm) was 0 in each case.
Consider `O=C1OCc2c(Cl)c(Cl)c(Cl)c(Cl)c21` [fthalide], for which the pest or weed control at 10 ppm in the assay with Pyricularia oryze (setting [11]) turned out to be 50%.
Turning to `CCCCCCCCCCCCc1ccc(S(=O)(=O)O)cc1.CCCCCCCCCCCCc1ccc(S(=O)(=O)O)cc1.CCCCCCCCCCCCc1ccc(S(=O)(=O)O)cc1.NC(N)=NCCCCCCCCNCCCCCCCCN=C(N)N` [iminoctadine albesilate], the Preventive value in the assay on Sphaerotheca fuliginea (50 ppm) amounted to 83; in the assay on Phytophthora infestans (250 ppm), 0; in assay [1] (250 ppm), 0; in assay [2] (250 ppm), 40; in the assay on Botrytis cinerea (10 ppm), 67; in assay [3] (50 ppm), 17. In addition, the figures for the Preventive value in the assay on Puccinia recondita (250 ppm), in the assay with Plasmopara viticola (250 ppm) and in the assay on Pyricularia oryze (250 ppm) were 40, 0 and 50, respectively.
Consider `CC(C)NC(=O)N1CC(=O)N(c2cc(Cl)cc(Cl)c2)C1=O` [iprodione], for which the pest or weed control at 250 ppm in the assay on Sphaerotheca fuliginea (setting [4]) worked out at 33%; in [3] (setting [9]), 17%; in the assay with Puccinia recondita it was 33%; in the assay with Pyricularia oryze (setting [11]) it was 0%. The pest or weed control at 2 ppm in the assay with Botrytis cinerea (setting [8]) was found to be 40%.
As for `C[C@H]1O[C@H](O[C@H]2[C@H](O)[C@@H](O)[C@@H](O)[C@H](O)[C@@H]2O)[C@@H](N)C[C@@H]1NC(=N)C(=O)O` [kasugamycin], the Preventive value with Pyricularia oryze (10 ppm) worked out at 73.
With `C#CCOc1ccc(CCNC(=O)C(OCC#C)c2ccc(Cl)cc2)cc1OC` (stereo not shown) [mandipropamid], the Preventive value with Phytophthora infestans (0.4 ppm) was 73; in assay [1] (0.4 ppm) it was 40; in [2] (0.4 ppm) it was 67; in the assay on Plasmopara viticola (0.4 ppm) it was 73.
With `CCCOC(=O)NCCCN(C)C` [propamocarb hydrochloride], the pest or weed control at 250 ppm in the assay on Phytophthora infestans (setting [5]) is 67%; in assay [1] (setting [6]), 40%; in the assay on Pythium aphanidermatum (setting [7]), 0%; in [2] (setting [6]), 67%; in the assay on Plasmopara viticola (setting [10]), 33%.
With `Fc1ccc(Oc2ccnc3cc(Cl)cc(Cl)c23)cc1` [quinoxyfen], the pest or weed control at 2 ppm in the assay on Sphaerotheca fuliginea (setting [4]) amounted to 83%; in [3] (setting [9]) it was 93%. Moreover, the pest or weed control at 250 ppm in the assay with Botrytis cinerea (setting [8]) and in the assay on Puccinia recondita was 0% each time.
Consider `Cc1cccc2sc3nncn3c12` [tricyclazole], for which the pest or weed control at 10 ppm in the assay with Pyricularia oryze (setting [11]) was 50%.
For `CCCOC/C(=N\c1ccc(Cl)cc1C(F)(F)F)n1ccnc1` [triflumizole], the pest or weed control at 0.4 ppm in the assay with Sphaerotheca fuliginea (setting [4]) is 97%; in assay [3] (setting [9]), 50%. The pest or weed control at 50 ppm in the assay on Botrytis cinerea (setting [8]) is 67%. In addition, the pest or weed control at 2 ppm in the assay on Puccinia recondita turned out to be 40%.
As to `OCC1=C[C@H](N[C@H]2C[C@H](CO)[C@@H](O[C@@H]3O[C@H](CO)[C@@H](O)[C@H](O)[C@H]3O)[C@H](O)[C@H]2O)[C@H](O)[C@@H](O)[C@@H]1O` [validamycin], the pest or weed control at 10 ppm in the assay with Pyricularia oryze (setting [11]) is 50%.
As for manzeb, the Preventive value in the assay on Sphaerotheca fuliginea (50 ppm) was found to be 50; with Phytophthora infestans (10 ppm) it was 67; in [1] (10 ppm) it was 0; in [2] (10 ppm), 90; in the assay with Botrytis cinerea (50 ppm), 40; in assay [3] (50 ppm), 40. Besides, the values for the Preventive value with Puccinia recondita (50 ppm) and in the assay with Plasmopara viticola (10 ppm) were 83 and 33, respectively.
